Earlier results on two compounds are cited in article PMC7898221 (Drug Design, Development and Therapy, 2021).

The subject of data set [1] is CYP3A4.

Regarding `CC(C)c1nc(N(C)S(C)(=O)=O)nc(-c2ccc(F)cc2)c1/C=C/[C@@H](O)C[C@@H](O)CC(=O)O` [Rosuvastatin], the “Terminal t1/2” value was 12.3 ± 5.8 h. The Tmax (after dosing) was 1.0 to 5.0 h.

As for `N[C@@H](CC(=O)N1CCc2c(nc(C(F)(F)F)nc2C(F)(F)F)C1)CN1CC(F)(F)CCC1=O` [Gemigliptin], the “Time to maximum plasma concentration (Tmax)” value (after dosing) was 0.5 to 3.0 h. In addition, in data set [1], the “Fraction metabolized by CYP3A4 into LC15-0636” value was ~ 10%.

As usually defined, the Tmax is the time from dosing to the highest level.
